Experimental data taken from ChEMBL document CHEMBL3885881, “DrugMatrix”.

Species on record: Rattus norvegicus
Assay: DrugMatrix - Regimen: Daily Repeat
Assay type: toxicity, organism-based, Sprague-Dawley
Design: regimen Daily Repeat, gender Male, age 6-8 weeks
Settings: in vivo, iv, vehicle 100 % SALINE; for ABSOLUTE BASOPHIL / ABSOLUTE EOSINOPHIL / ABSOLUTE LYMPHOCYTE / ABSOLUTE MONOCYTE / ABSOLUTE SEGMENTED NEUTROPHIL / BASOPHIL / EOSINOPHIL / ERYTHROCYTE COUNT / HEMATOCRIT / HEMOGLOBIN / LEUKOCYTE COUNT / LYMPHOCYTE / MEAN CORPUSCULAR HEMOGLOBIN / MEAN CORPUSCULAR HEMOGLOBIN CONCENTRATION / MEAN CORPUSCULAR VOLUME / MONOCYTE / NEUTROPHIL / NUCLEATED RED BLOOD CELLS: tissue Blood; for ALANINE AMINOTRANSFERASE / ALKALINE PHOSPHATASE / ASPARTATE AMINOTRANSFERASE / BLOOD UREA NITROGEN / CARBON DIOXIDE / CHOLESTEROL / CREATINE PHOSPHOKINASE / CREATININE / GLUCOSE / LACTATE DEHYDROGENASE / LIPASE / SODIUM / TOTAL BILIRUBIN / TOTAL PROTEIN / URIC ACID: tissue Plasma
[1] = 3 mg/kg, 120 h, dose level High, time 5 day
[2] = […], 72 h, dose 0.65 mg/Kg, dose level Low, time 3 day
[3] = […], 120 h, dose 0.65 mg/Kg, dose level Low, time 5 day

Structure (SMILES): COc1cccc2c1C(=O)c1c(O)c3c(c(O)c1C2=O)C[C@@](O)(C(=O)CO)C[C@@H]3O[C@H]1C[C@H](N)[C@H](O)[C@H](C)O1 [DOXORUBICIN]
- ABSOLUTE BASOPHIL [1]: 0 CELLS/uL
- ABSOLUTE EOSINOPHIL [1]: 17.33 CELLS/uL
- ABSOLUTE LYMPHOCYTE [1]: 1693 CELLS/uL
- ABSOLUTE MONOCYTE [1]: 0 CELLS/uL
- ABSOLUTE SEGMENTED NEUTROPHIL [1]: 589.67 CELLS/uL
- BASOPHIL [1]: 0%
- EOSINOPHIL [1]: 0.67%
- ERYTHROCYTE COUNT [1]: 5.12 x10E6/uL
- HEMATOCRIT [1]: 32.6%
- HEMOGLOBIN [1]: 12.83 G/DL
- LEUKOCYTE COUNT [1]: 2.3 x10E3/uL
- LYMPHOCYTE [1]: 74%
- MEAN CORPUSCULAR HEMOGLOBIN [1]: 25.07 pg
- MEAN CORPUSCULAR HEMOGLOBIN CONCENTRATION [1]: 39.4 G/DL
- MEAN CORPUSCULAR VOLUME [1]: 63.73 fL
- MONOCYTE [1]: 0%
- NEUTROPHIL [1]: 25.33%
- NUCLEATED RED BLOOD CELLS [1]: 0 /100WBC
- ALANINE AMINOTRANSFERASE [1]: 34 u/L
- ALKALINE PHOSPHATASE [1]: 189.67 u/L
- ASPARTATE AMINOTRANSFERASE [1]: 86.33 u/L
- BLOOD UREA NITROGEN [1]: 12.33 mg/dL
- CARBON DIOXIDE [1]: 25.67 mmol/L
- CHOLESTEROL [1]: 95.67 mg/dL
- CREATINE PHOSPHOKINASE [1]: 299.33 u/L
- CREATININE [1]: 0.1 mg/dL
- GLUCOSE [1]: 147.67 mg/dL
- LACTATE DEHYDROGENASE [1]: 73.33 u/L
- LIPASE [1]: 8.33 u/L
- SODIUM [1]: 144.9 MEQ/L
- TOTAL BILIRUBIN [1]: 0.1 mg/dL
- TOTAL PROTEIN [1]: 5.77 G/DL
- URIC ACID [1]: 0.4 mg/dL
- ABSOLUTE BASOPHIL [2]: 0 CELLS/uL
- ABSOLUTE EOSINOPHIL [2]: 0 CELLS/uL
- ABSOLUTE LYMPHOCYTE [2]: 6184 CELLS/uL
- ABSOLUTE SEGMENTED NEUTROPHIL [2]: 275.33 CELLS/uL
- BASOPHIL [2]: 0%
- EOSINOPHIL [2]: 0%
- ERYTHROCYTE COUNT [2]: 5.13 x10E6/uL
- HEMATOCRIT [2]: 33%
- HEMOGLOBIN [2]: 13.03 G/DL
- LEUKOCYTE COUNT [2]: 6.5 x10E3/uL
- LYMPHOCYTE [2]: 94.67%
- MEAN CORPUSCULAR HEMOGLOBIN [2]: 25.47 pg
- MEAN CORPUSCULAR HEMOGLOBIN CONCENTRATION [2]: 39.5 G/DL
- MEAN CORPUSCULAR VOLUME [2]: 64.47 fL
- MONOCYTE [2]: 0.67%
- NEUTROPHIL [2]: 4.67%
- NUCLEATED RED BLOOD CELLS [2]: 0 /100WBC
- ALANINE AMINOTRANSFERASE [2]: 48.33 u/L
- ALKALINE PHOSPHATASE [2]: 370 u/L
- ASPARTATE AMINOTRANSFERASE [2]: 79.33 u/L
- BLOOD UREA NITROGEN [2]: 12.33 mg/dL
- CARBON DIOXIDE [2]: 30.33 mmol/L
- CHOLESTEROL [2]: 68.33 mg/dL
- CREATINE PHOSPHOKINASE [2]: 280.67 u/L
- CREATININE [2]: 0.29 mg/dL
- GLUCOSE [2]: 179 mg/dL
- LACTATE DEHYDROGENASE [2]: 81.33 u/L
- LIPASE [2]: 10.33 u/L
- SODIUM [2]: 144.23 MEQ/L
- TOTAL BILIRUBIN [2]: 0.1 mg/dL
- TOTAL PROTEIN [2]: 5.93 G/DL
- URIC ACID [2]: 0.87 mg/dL
- ABSOLUTE BASOPHIL [3]: 0 CELLS/uL
- ABSOLUTE EOSINOPHIL [3]: 49.33 CELLS/uL
- ABSOLUTE LYMPHOCYTE [3]: 5081.33 CELLS/uL
- ABSOLUTE MONOCYTE [3]: 14 CELLS/uL
- ABSOLUTE SEGMENTED NEUTROPHIL [3]: 188.67 CELLS/uL
- BASOPHIL [3]: 0%
- EOSINOPHIL [3]: 1%
- ERYTHROCYTE COUNT [3]: 5.28 x10E6/uL
- HEMATOCRIT [3]: 34.1%
- HEMOGLOBIN [3]: 13.37 G/DL
- LEUKOCYTE COUNT [3]: 5.33 x10E3/uL
- LYMPHOCYTE [3]: 95%
- MEAN CORPUSCULAR HEMOGLOBIN [3]: 25.3 pg
- MEAN CORPUSCULAR HEMOGLOBIN CONCENTRATION [3]: 39.17 G/DL
- MEAN CORPUSCULAR VOLUME [3]: 64.67 fL
- MONOCYTE [3]: 0.33%
- NEUTROPHIL [3]: 3.67%
- NUCLEATED RED BLOOD CELLS [3]: 0 /100WBC
- ALANINE AMINOTRANSFERASE [3]: 34.67 u/L
- ALKALINE PHOSPHATASE [3]: 365.33 u/L
- ASPARTATE AMINOTRANSFERASE [3]: 74.67 u/L
- BLOOD UREA NITROGEN [3]: 14 mg/dL
- CARBON DIOXIDE [3]: 26 mmol/L
- CHOLESTEROL [3]: 68.67 mg/dL
- CREATINE PHOSPHOKINASE [3]: 222 u/L
- CREATININE [3]: 0.14 mg/dL
- GLUCOSE [3]: 156 mg/dL
- LACTATE DEHYDROGENASE [3]: 60 u/L
- LIPASE [3]: 9 u/L
- SODIUM [3]: 145.47 MEQ/L
- TOTAL BILIRUBIN [3]: 0.1 mg/dL
- TOTAL PROTEIN [3]: 5.63 G/DL
- URIC ACID [3]: 0.23 mg/dL
